Data from publication PMC6543056 (Acta Pharmaceutica Sinica. B, 2019).

Target: Vps34 (Homo sapiens, UniProt Q8NEB9)
Experiment: ELISA assay of Vps34 kinase activity
Type: biochemical
Settings: Fig. S4

Sequence of Vps34 (Q8NEB9 whole entry): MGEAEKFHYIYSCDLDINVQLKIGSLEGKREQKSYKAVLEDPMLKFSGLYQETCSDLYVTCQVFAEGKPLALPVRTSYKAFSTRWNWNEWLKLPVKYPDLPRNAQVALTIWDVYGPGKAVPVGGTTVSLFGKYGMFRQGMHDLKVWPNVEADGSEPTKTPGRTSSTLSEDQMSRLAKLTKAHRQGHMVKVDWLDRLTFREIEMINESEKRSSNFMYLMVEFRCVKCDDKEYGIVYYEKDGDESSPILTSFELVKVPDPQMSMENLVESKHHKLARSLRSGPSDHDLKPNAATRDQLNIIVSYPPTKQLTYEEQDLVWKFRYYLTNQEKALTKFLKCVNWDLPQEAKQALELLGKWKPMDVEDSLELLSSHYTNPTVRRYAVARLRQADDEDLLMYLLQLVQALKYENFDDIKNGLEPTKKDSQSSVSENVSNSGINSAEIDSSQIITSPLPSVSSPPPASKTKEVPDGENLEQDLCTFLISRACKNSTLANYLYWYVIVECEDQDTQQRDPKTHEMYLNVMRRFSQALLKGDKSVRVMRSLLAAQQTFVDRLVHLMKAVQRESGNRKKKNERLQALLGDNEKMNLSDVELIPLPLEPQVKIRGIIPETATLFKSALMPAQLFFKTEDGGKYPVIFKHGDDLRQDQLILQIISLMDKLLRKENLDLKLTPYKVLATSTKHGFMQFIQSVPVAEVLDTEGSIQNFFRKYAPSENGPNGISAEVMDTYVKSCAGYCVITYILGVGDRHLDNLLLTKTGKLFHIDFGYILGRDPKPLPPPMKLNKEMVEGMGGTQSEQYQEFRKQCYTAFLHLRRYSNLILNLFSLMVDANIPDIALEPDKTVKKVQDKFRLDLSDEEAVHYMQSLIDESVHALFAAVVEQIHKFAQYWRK

Vps34 inhibition of analogues, SAR (in words): abolishment of activity
Compound: O=C1/C(=C/C=C/c2ccccc2)Oc2cc(O)ccc21 [1d]
